Twelve molecules from ChEMBL document CHEMBL1201862, “PubChem BioAssay data set” (2004) can be followed below.

As usually defined, the GI50 is the concentration at which growth is held to half of that of the control.

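Interpolation was linear, between the two tested concentrations surrounding the appropriate level; five concentrations were tested over 48 hours in 96-well plates. The concentration for 50% growth inhibition is given as GI50.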 Active and inactive are the calls of the source. No stated cut-off is given here; in the data, active = GI50 up to about 1.1 µM and inactive = higher.

Test systems include UACC-62; SN12C; OVCAR-5; SF-539; BT-549; UO-31; HCT-15; SNB-19; OVCAR-4; OVCAR-8; UACC-257; U-251; HOP-92; NCI-H226; NCI/ADR-RES; HCT-116; NCI-H522; CAKI-1; HCC 2998.
What all share (assay): DTP human tumour cell line panel, 48 h

As for `OC1OC(c2ccco2)C(F)(F)C(F)(F)C1(F)F` (stereo unspecified), the GI50 is > 100 µM (inactive) in the assay with UACC-62; > 100 µM (inactive) in the assay on SN12C; > 100 µM (inactive) with OVCAR-5; > 100 µM (inactive) with SF-539; > 100 µM (inactive) in the assay with BT-549; 59.6 µM (inactive) with UO-31. For the same molecule, the GI50 with HCT-15 is 90.4 µM; in the assay on SNB-19, > 100 µM (inactive); in the assay on OVCAR-4, 43.2 µM (inactive); in the assay with OVCAR-8 it was > 100 µM (inactive); in the assay on UACC-257 it was > 100 µM (inactive); in the assay with U-251, > 100 µM (inactive). The GI50 is 38 µM (inactive) with HOP-92, > 100 µM (inactive) with NCI-H226, 61.5 µM (inactive) in the assay with NCI/ADR-RES and > 100 µM (inactive) in the assay on HCT-116.
On to `C=C1C(=O)O[C@@H]2C=C(C)C3=CC(=O)[C@](C)(C[C@H](OC(=O)/C(C)=C\C)[C@@H]12)O3`, for which the GI50 with NCI-H522 is 0.144 µM (active); in the assay on UACC-62 it was 0.508 µM (active); in the assay on SN12C, 1.92 µM (inactive); in the assay on CAKI-1, 0.509 µM (active); with HCC 2998 it was 1.51 µM (inactive); in the assay with OVCAR-5, 1.97 µM (inactive). Also, the GI50 was 2.43 µM (inactive) in the assay with SF-539; 1.09 µM (active) with UO-31; 0.328 µM in the assay with HCT-15; 4.88 µM (inactive) in the assay on OVCAR-4; 0.51 µM (active) with OVCAR-8; 2.14 µM (inactive) with UACC-257. For the same molecule, the GI50 in the assay with U-251 is 1.85 µM (inactive); in the assay with HOP-92 it was 0.671 µM (active); in the assay on NCI-H226, 2.28 µM (inactive); in the assay on NCI/ADR-RES, 0.67 µM (active); in the assay on HCT-116, 0.282 µM (active).
With `Cc1cc(=O)oc2cc(OCc3c(F)cccc3Cl)ccc12`, the GI50 in the assay on NCI-H522 is 11.1 µM (inactive); in the assay on UACC-62, 1.12 µM (inactive); with SN12C it was > 100 µM (inactive); with CAKI-1, 17.2 µM (inactive); in the assay with OVCAR-5, > 100 µM (inactive); with SF-539, 11.9 µM (inactive). Moreover, the GI50 with BT-549 is 28.2 µM (inactive); in the assay on UO-31, > 100 µM (inactive); in the assay with SNB-19, 20.9 µM (inactive); in the assay with OVCAR-4, 48.4 µM (inactive); in the assay on OVCAR-8, > 100 µM (inactive); with UACC-257, 78.5 µM (inactive). Also, the GI50 is 8.85 µM (inactive) in the assay with U-251, 10.5 µM (inactive) in the assay on HOP-92, 33.3 µM (inactive) with NCI-H226 and 4.41 µM (inactive) in the assay on HCT-116.
For the molecule `CC[C@H](C)C1=C(OC(C)=O)[N@+]2([O-])Oc3ccc(-c4c(O)c(O)c(-c5ccc(OC(C)=O)cc5)c(OC(C)=O)c4OC(C)=O)cc3O[C@]2([C@@H](C)CC)C(=O)N1O`, the GI50 in the assay on NCI-H522 is 10.6 µM (inactive); in the assay on UACC-62, 14.7 µM (inactive); in the assay on SN12C it was 19.4 µM (inactive); in the assay on CAKI-1, 26.3 µM (inactive); in the assay on OVCAR-5, 22.9 µM (inactive); with SF-539 it was 14.2 µM (inactive). Besides, the GI50 is 16.9 µM (inactive) in the assay on BT-549; 35 µM (inactive) in the assay with UO-31; 19.2 µM in the assay on HCT-15; 32.1 µM (inactive) in the assay with SNB-19; 11.1 µM (inactive) in the assay with OVCAR-4; 18.4 µM (inactive) with OVCAR-8. Further, the GI50 is > 50 µM (inactive) in the assay with UACC-257; 24.3 µM (inactive) in the assay with U-251; 3.84 µM (inactive) in the assay with HOP-92; 18.5 µM (inactive) in the assay with NCI/ADR-RES; 10.8 µM (inactive) in the assay with HCT-116.
With `O=C(O)c1ccc2[nH]c(=O)oc2c1`, the GI50 with UACC-62, in the assay with SN12C, in the assay with CAKI-1, with OVCAR-5, in the assay with SF-539 and in the assay with BT-549 was > 100 µM (inactive) in each case. For the same molecule, the GI50 with HCT-15 was more than 100 µM; with SNB-19, > 100 µM (inactive); in the assay on OVCAR-8 it was > 100 µM (inactive); with UACC-257, > 100 µM (inactive); in the assay on U-251 it was > 100 µM (inactive); in the assay with NCI-H226, > 100 µM (inactive). Further, the GI50 with NCI/ADR-RES and in the assay with HCT-116 was > 100 µM (inactive) in each case.
Turning to `O=C(CC(C(=O)c1ccsc1)c1ccccc1)c1cccs1` (stereo unspecified), the GI50 in the assay on NCI-H522 is 41.6 µM (inactive); with UACC-62, 24.8 µM (inactive); in the assay with SN12C, > 100 µM (inactive); in the assay with CAKI-1 it was > 100 µM (inactive); in the assay on HCC 2998 it was 85.3 µM (inactive); in the assay on OVCAR-5, > 100 µM (inactive). The GI50 in the assay with SF-539 is > 100 µM (inactive); with UO-31, 19.6 µM (inactive); in the assay with HCT-15, 56.9 µM; with OVCAR-4 it was 55 µM (inactive); with OVCAR-8, 58.1 µM (inactive); with UACC-257, 61 µM (inactive). For the same molecule, the GI50 with U-251 was 62.2 µM (inactive); with HOP-92, > 100 µM (inactive); with NCI-H226, > 100 µM (inactive); in the assay with NCI/ADR-RES it was 22.5 µM (inactive); with HCT-116 it was 44.5 µM (inactive).
Take `O=C(NN1C(=O)C(Cl)C1c1cccc(Cl)c1)c1ccccc1O` (stereo unspecified): the GI50 was > 100 µM (inactive) with NCI-H522; > 100 µM (inactive) in the assay with UACC-62; > 100 µM (inactive) in the assay on SN12C; > 100 µM (inactive) in the assay on SF-539; > 100 µM (inactive) in the assay on UO-31; more than 100 µM with HCT-15. The GI50 in the assay with SNB-19, in the assay on OVCAR-4, with OVCAR-8, in the assay on UACC-257, with U-251 and in the assay with NCI-H226 was > 100 µM (inactive) in each case. Moreover, in the assay on HCT-116, the GI50 is > 100 µM (inactive).
Consider `CCCCNC(=S)N/C=C1\C(=O)Oc2ccccc2C1=O`, for which the GI50 in the assay with SN12C was 68.5 µM (inactive); with CAKI-1, 26.1 µM (inactive); in the assay on HCC 2998 it was 68.7 µM (inactive); in the assay with OVCAR-5, > 100 µM (inactive); in the assay on SF-539, 98.4 µM (inactive); with UO-31, 37.2 µM (inactive). Moreover, the GI50 was 48 µM in the assay with HCT-15; 49.4 µM (inactive) with SNB-19; 74.5 µM (inactive) in the assay with OVCAR-4; 42.4 µM (inactive) in the assay with OVCAR-8; > 100 µM (inactive) in the assay on UACC-257; 54 µM (inactive) with U-251. In addition, the GI50 in the assay with HOP-92 is > 100 µM (inactive); with NCI-H226, > 100 µM (inactive); with NCI/ADR-RES, > 100 µM (inactive); with HCT-116, 73.5 µM (inactive).
`COC1=CC(=O)C(O)=C(C[C@@]2(C)[C@@H]3CCC[C@H](COC(=O)CCCCCNC(=O)OC(C)(C)C)[C@@]3(C)CC[C@@H]2C)C1=O`: the GI50 in the assay on NCI-H522 was 3.05 µM (inactive); in the assay with SN12C, > 10 µM (inactive); in the assay with CAKI-1, 4.61 µM (inactive); in the assay on OVCAR-5, > 10 µM (inactive); in the assay on UO-31, 6.47 µM (inactive); with SNB-19, 3.77 µM (inactive). Besides, the GI50 with OVCAR-4 is > 10 µM (inactive); with OVCAR-8, 6.73 µM (inactive); in the assay with UACC-257, > 10 µM (inactive); in the assay on U-251 it was 3.9 µM (inactive); in the assay with HOP-92, 3.9 µM (inactive); with NCI-H226, 8.45 µM (inactive). In addition, the GI50 in the assay with HCT-116 is 6.55 µM (inactive).
Regarding `O=C1C=C2CCC[C@H]3OC(=O)C[C@@]23CC1`, the GI50 with NCI-H522, with UACC-62, in the assay with SN12C, in the assay with CAKI-1, in the assay with HCC 2998 and in the assay with OVCAR-5 was > 100 µM (inactive) throughout. Further, the GI50 in the assay with SF-539 is > 100 µM (inactive); in the assay on HCT-15, more than 100 µM; in the assay on SNB-19 it was > 100 µM (inactive); in the assay with OVCAR-4, > 100 µM (inactive); with UACC-257, > 100 µM (inactive); with U-251, > 100 µM (inactive). In addition, the GI50 with HOP-92, in the assay on NCI-H226, in the assay with NCI/ADR-RES and with HCT-116 was > 100 µM (inactive) throughout.
Consider `Cn1cnc(N2CCCC2)c(C#N)c1=O`, for which the GI50 with NCI-H522, in the assay with UACC-62, in the assay on SN12C, with CAKI-1, with HCC 2998 and in the assay on OVCAR-5 was > 100 µM (inactive) in each case. Further, the GI50 in the assay with SF-539 is > 100 µM (inactive); in the assay on UO-31 it was > 100 µM (inactive); with HCT-15, more than 100 µM; with SNB-19, > 100 µM (inactive); in the assay with OVCAR-4 it was > 100 µM (inactive); in the assay on OVCAR-8, > 100 µM (inactive). Also, the GI50 with UACC-257, in the assay on U-251, in the assay on HOP-92, with NCI-H226, in the assay with NCI/ADR-RES and in the assay with HCT-116 was > 100 µM (inactive) in each case.
As to `O=C1Nc2ccccc2/C1=N/NC(=S)N1CCCCCC1`, the GI50 is 2.47 µM (inactive) with NCI-H522; 0.489 µM (active) with UACC-62; 1.42 µM (inactive) in the assay with SN12C; 1.43 µM (inactive) with CAKI-1; 1.52 µM (inactive) in the assay on HCC 2998; 2.59 µM (inactive) in the assay with OVCAR-5. The GI50 with SF-539 is 0.168 µM (active); in the assay with UO-31 it was 0.35 µM (active); in the assay with HCT-15, 0.45 µM; in the assay with SNB-19, 1.54 µM (inactive); with OVCAR-4, 1.38 µM (inactive); in the assay on OVCAR-8, 0.895 µM (active). Further, the GI50 with UACC-257 was 2.54 µM (inactive); with U-251 it was 1.11 µM (active); in the assay with HOP-92 it was 1.82 µM (inactive); with NCI-H226, 1.36 µM (inactive); in the assay on NCI/ADR-RES, 0.0769 µM (active); in the assay on HCT-116 it was 0.312 µM (active).
